Measurements taken from US12091402B2 (Avilar Therapeutics, Inc., priority 2021, dated 2024).

Experiments:
IgG-AF488 = experiment: Western blot of IgG-AF488 degradation (Example 5, FIG. 10); assay type: cell-based
DNP-IgG = experiment: Colocalization imaging of DNP-IgG uptake (Example 4, FIG. 11); assay type: cell-based
[1] = biological target: T1, ASGPR receptor on the cell surface (HepG2 cells) (Homo sapiens, UniProt P07306); experiment: Ternary complex formation assay (flow cytometry, HepG2); assay type: cell-based; conditions: HepG2 cells
T1 construct: host or cells: HepG2
T1 sequence (P07306 1-291): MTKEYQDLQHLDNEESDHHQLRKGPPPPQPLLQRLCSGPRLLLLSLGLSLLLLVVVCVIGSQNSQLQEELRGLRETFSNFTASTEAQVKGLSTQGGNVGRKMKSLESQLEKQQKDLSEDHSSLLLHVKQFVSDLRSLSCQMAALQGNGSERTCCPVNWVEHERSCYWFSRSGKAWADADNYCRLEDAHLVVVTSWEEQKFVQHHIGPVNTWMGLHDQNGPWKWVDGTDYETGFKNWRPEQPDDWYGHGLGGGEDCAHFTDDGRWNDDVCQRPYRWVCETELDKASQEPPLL
T1 sequence (P07307 1-311 partner): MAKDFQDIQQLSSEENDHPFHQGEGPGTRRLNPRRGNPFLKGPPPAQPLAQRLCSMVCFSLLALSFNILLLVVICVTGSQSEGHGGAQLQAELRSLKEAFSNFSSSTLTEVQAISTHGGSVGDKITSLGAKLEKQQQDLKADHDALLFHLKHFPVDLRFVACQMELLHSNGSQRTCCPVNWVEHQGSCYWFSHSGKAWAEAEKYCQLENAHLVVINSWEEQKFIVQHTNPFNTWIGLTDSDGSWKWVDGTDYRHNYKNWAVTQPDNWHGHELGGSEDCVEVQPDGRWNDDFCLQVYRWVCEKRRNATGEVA
In short: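 HepG2 cells (1×10^5/well) incubated 1 h at 4 °C with 100 nM AF488-labeled anti-human IgG plus serial IgG-based degrader, or 100 nM AF488 rabbit anti-DNP plus serial DNP-based degrader. After washing, cell-associated AF488 MFI read by flow cytometry; peak MFI marks optimal degrader concentration for ternary complex.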

HepG2 cells [2] = experiment: Cellular uptake assay of AF488-labeled antibody (HepG2); assay type: cell-based
In short: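 HepG2 cells given 100 nM AF488-labeled human IgG or DNP antibody plus serial dilutions of matching degrader (0.1% DMSO final), 6 h at 37° C. Methanol-fixed, DAPI-stained and imaged by high-content analysis. Value is the fraction of AF488-positive cells over total DAPI-counted cells.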

HepG2 cells [3] = experiment: Cellular co-localization study (LAMP2 immunofluorescence); assay type: cell-based; conditions: 100 nM compound, 100 nM AF488-labeled DNP antibodies, 8 hours, FIG. 4
Experimental: To confirm that DNP-IgG was trafficked to the lysosome following uptake by the HepG2 cells, cells were stained with the lysosomal marker LAMP2, and the subcellular location of AF488-labeled DNP-IgG was visualized by immunofluorescence microscopy.
HepG2 cells were plated in DMEM supplemented with 10% FBS incubated for approximately 18 hours at 37° C./5% CO2. AF488-labeled DNP antibodies (100 nM) and either DMSO or 100 nM of Compound 28 were added to the cells and incubated at 37° C. for an additional 8 hours. Cells were fixed with 100% methanol for 20 minutes at −20° C. followed by incubation with blocking buffer (1×PBS containing 5% normal goat serum and 0.1% Triton X-100) for 1 hour at room temperature. Cells were stained with anti-LAMP2 (Abcam) at 4° C. for about 18 hours followed by treatment with goat anti-mouse IgG-AF647 for 2 hours at room temperature. Nuclei were stained with DAPI. Pictures were taken on a Leica fluorescence microscope at 40× magnification.

HepG2 cells [4] = experiment: Cellular degradation assay of anti-DNP-AF488 antibody; assay type: cell-based; conditions: 0.2 μM compound, 1 μM anti-DNP-AF488, 16 hours uptake then wash, FIG. 3
Experimental: To observe degradation of IgG in cells, a mixture of fluorescently labeled DNP antibody and compound are added to HepG2 cells and cellular uptake occurs over 16 hours. Cells are then washed to remove extracellular antibody and compound and samples are taken at various time points after uptake to detect levels of intact and/or proteolytic fragments of the antibody heavy and light chains over time as a kinetic measurement of antibody degradation.
HepG2 cells were seeded in DMEM supplemented with 10% FBS into a 12-well plate at a final amount of 20,000 cells per well. After about 18 hours incubation, 1 μM anti-DNP-AF488 antibody and/or 0.2 μM Compound 28 was added to the cells and incubated for 16 hours. The next day, cells were washed once with cell culture media and replaced with cell culture medium lacking anti-DNP-AF488 antibody or Compound 28 and incubated for 0, 1, 2, 4, and 8 hours, respectively. Cells were washed and lysed in RIPA buffer with protease inhibitors. Cell lysates were separated by SDS-PAGE and the fluorescent anti-DNP-AF488 antibody degradation products were visualized by the iBright 1500 gel reader (ThermoFisher). Intracellular heavy and light chains of DNP-IgG are observed after 16 hours of uptake into HepG2 cells. […]

ASGPR = biological target: T2, ASGPR (Homo sapiens, UniProt P07306); experiment: Affinity to ASGPR by surface plasmon resonance (SPR)
T2 sequence (P07306 1-291): T1 sequence (P07306 1-291)

TNF [5] = biological target: T3, TNF (Homo sapiens, UniProt P01375); experiment: Western blot of TNF degradation over time (Example 11, FIG. 24); assay type: cell-based; conditions: 0.5 μM compound
TNF [6] = biological target: T3, TNF; experiment: Western blot of ASGPR mediated uptake of TNF (Example 12, FIG. 25); assay type: cell-based
TNFα = TNFα (Homo sapiens, UniProt P01375); experiment: TNF FP assay; assay type: binding; conditions: TNF 20 nM, 25° C., 2 hours; read-out: TNFα FP IC50 KD
Experimental: TNF (20 nM) and Compound 36 in 47 mM HEPES pH 6.5, 47 mM NaCl, 0.9 mM EDTA, 0.007% Triton X-100 were incubated at 25° C. for 2 hours. Fluorescence data was read with an Envision and plotted versus Compound 36 concentration and fit to a single-site binding model. This assay was used to calculate the FP data in Table 7.

T3 sequence (P01375 77-233 limits assumed): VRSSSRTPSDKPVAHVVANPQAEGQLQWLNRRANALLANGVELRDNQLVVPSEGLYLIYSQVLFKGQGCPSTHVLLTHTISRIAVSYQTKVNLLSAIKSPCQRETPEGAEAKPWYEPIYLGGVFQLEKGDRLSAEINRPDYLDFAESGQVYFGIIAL
TNFα, sequence (P01375 77-233 limits assumed): as above

Compound	degradation of IgG-AF488 (western blot) (IgG-AF488)	uptake of DNP-IgG (colocalization image) (DNP-IgG)	EC50 ([1]; EC50, half-maximal concentration with respect to the peak MFI (ternary complex formation), AF488-labeled DNP antibody, FIG. 1)	EC50 ([1]; Ternary Complex EC50 (nM), 100 nM AF488-labeled antibody, 1 hour at 4° C., class symbols)	EC50, half-maximal concentration with respect to the peak ratio of antibody-positive cells (cellular uptake) (HepG2 cells [2]; DNP-antibody, HepG2 cells, FIG. 2)	EC50 (HepG2 cells [2]; Homo sapiens, HepG2, 6 h, read-out: Uptake Assay EC50 (nM))	Uptake of DNP-IgG and co-localization with lysosomal marker LAMP2 (HepG2 cells [3])	Loss of intact heavy chain of DNP-IgG observed after (HepG2 cells [4])	Loss of intact light chain of DNP-IgG observed after (HepG2 cells [4])	Kd (ASGPR)	degradation of TNF over time (western blot) (TNF [5])	ASGPR mediated uptake of TNF (western blot) (TNF [6])	IC50 (TNFα)	ASGPR kd (ASGPR; Table 7)
O=C(CCOCC(COCCC(=O)NCCOCCOCCOCCOC[C@H]1OC[C@@H](Nc2nc(Cl)ns2)[C@@H](O)[C@H]1O)NC(=O)COCCOCCOCCNc1ccc([N+](=O)[O-])cc1[N+](=O)[O-])NCCOCCOCCOCCOC[C@H]1OC[C@@H](Nc2nc(Cl)ns2)[C@@H](O)[C@H]1O [Compound 28, 3,3′-((2-(2-(2-(2-(2-((2,4-dinitrophenyl)amino)ethoxy)ethoxy)ethoxy)acetamido)propane-1,3-diyl)bis(oxy))bis(N-(1-((2R,3R,4R,5R)-5-((3-chloro-1,2,4-thiadiazol-5-yl)amino)-3,4-dihydroxytetrahydro-2H-pyran-2-yl)-2,5,8,11-tetraoxatridecan-13-yl)propanamide)]	degradation of IgG-AF488	uptake of DNP-IgG	4.7 nM	< 100 nM	3.8 nM	< 100 nM	DNP-IgG was taken up into the cells and co-localized with the lysosomal marker LAMP2	1 h	8 h	< 100 nM				
O=C(CCOCC(COCCC(=O)NCCOCCOCCOCCOC[C@H]1OC[C@H](Nc2nccc(C(F)(F)F)n2)[C@@H](O)[C@H]1O)NC(=O)COCCOCCOCC(=O)N1CCN(Cc2ccc(-c3c[nH]c4ccncc34)c(OCCc3ccc(-c4cccc5ccncc45)cc3)c2)CC1)NCCOCCOCCOCCOC[C@H]1OC[C@H](Nc2nccc(C(F)(F)F)n2)[C@@H](O)[C@H]1O [Compound 36, 3,3′-((2-(2-(2-(2-(2-(4-(3-(4-(isoquinolin-8-yl)phenethoxy)-4-(1H-pyrrolo[3,2-c]pyridin-3-yl)benzyl)piperazin-1-yl)-2-oxoethoxy)ethoxy)ethoxy)acetamido)propane-1,3-diyl)bis(oxy))bis(N-(1-((2R,3R,4R,5S)-3,4-dihydroxy-5-((4-(trifluoromethyl)pyrimidin-2-yl)amino)tetrahydro-2H-pyran-2-yl)-2,5,8,11-tetraoxatridecan-13-yl)propanamide)]										< 1 nM	degradation of TNF	ASGPR mediated uptake of TNF	< 500 nM	<0.01 s⁻¹
